Each structure is given as a SMILES string. pIC50: −log10 of the molar value.

We go through 3 compounds from patent US20240059703A1 (AMGEN INC., priority 2021, published 2024).

Test [1] has as its system phosphorylation of extracellular signal-regulated kinase (ERK). To be noted: preclinical studies; cited from earlier work.
For a further test, the target named is KRAS G12C (Homo sapiens (Human), UniProt P01116, C118A/G12C). Nature of the test: 20 h coupled exchange assay. It is filed as biochemical. To be noted: value marked ** in the Avg 2 h column; footnote not given, taken as 20 h pre-incubation. The method, then:
The term “2 h coupled exchange assay” or “20 h coupled exchange assay” as used herein refers to the assay described in the Section entitled “BIOLOGICAL EVALUATION.”

For test [2], the system named is MIA PaCa-2 (human pancreatic carcinoma) cells. Nature of the test: Cell Viability Assay (CellTiter-Glo), MIA PaCa-2. It is filed as cell-based. The conditions noted are these: Homo sapiens, MIA PaCa-2, 72 h. The method, then: Serially-diluted compound or DMSO was added to the cells, and plates were incubated at 37° C., 5% CO2 for 72 h. Cell viability was measured using a CellTiter-Glo® Luminescent Cell Viability Assay kit (Promega) according to the manufacturer's protocol. The luminescence signal of treated samples was normalized to DMSO control, and data were analyzed using a 4-parameter logistic model to calculate IC50 values.
Background: Cellular ATP, detected with luciferase, serves as a proxy for viable cell number.

The subject of test [3] is A549 (human lung carcinoma) cells. Nature of the test: Cell Viability Assay (CellTiter-Glo), A549. The class given is cell-based. The conditions noted are these: Homo sapiens, A549, 72 h. Put shortly: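 Cells grown in RPMI 1640 with 10% FBS were seeded at 1.67E+04 cells/mL and left overnight at 37° C., 5% CO2. They were then exposed to serially diluted compound for 72 h, after which CellTiter-Glo luminescence was read, normalized to DMSO, and fitted to a 4-parameter logistic model for IC50.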

KRAS G12C, sequence (P01116 other isoform, or with tags, fused parts or gaps G12C/C118A): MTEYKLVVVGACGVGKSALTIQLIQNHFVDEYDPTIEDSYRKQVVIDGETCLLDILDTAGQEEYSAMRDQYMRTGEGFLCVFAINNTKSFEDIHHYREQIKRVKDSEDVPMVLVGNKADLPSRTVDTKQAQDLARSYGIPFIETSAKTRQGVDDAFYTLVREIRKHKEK

For the compound `C=CC(=O)N1CCN(c2nc(=O)n(-c3c(C)ccnc3C(C)C)c3nc(-c4c(O)cccc4F)c(F)cc23)[C@@H](C)C1` [AMG 510], the “inhibition of phosphorylation of extracellular signal-regulated kinase (ERK)” value in test [1] is “inhibited nearly all detectable phosphorylation”.
`C=CC(=O)N1CC2(CCN(c3nc(-c4c(C)ccc5[nH]ncc45)c4ncn(C)c4n3)C2)C1` [Example 1-20, 1-(6-(9-methyl-6-(5-methyl-1H-indazol-4-yl)-9H-purin-2-yl)-2,6-diazaspiro[3.4]octan-2-yl)-2-propen-1-one]: the values for the pIC50 (against KRAS G12C; in test [2]; in test [3]) were 5.33, less than 5.30 and less than 5.30, respectively.
On to `C=CC(=O)N1CC2(CCN(c3cc(-c4c(C)ccc5[nH]ncc45)c4occ(C)c4n3)C2)C1` [Example 3, 1-(6-(3-Methyl-7-(5-methyl-1H-indazol-4-yl)furo[3,2-b]pyridin-5-yl)-2,6-diazaspiro[3.4]octan-2-yl)prop-2-en-1-one], for which, at KRAS G12C, the pIC50 (in general, −log10 of the IC50, conventionally taken in molar units) was 5.86.
